“And” between values parts separate entries of the source, which are not always exact repeats. Identical values can stand only once. Toxic doses and inconclusive results are not listed.
Tested on: mice, LPC-1 plasma cell tumor ip, median survival T/C
Experiment: NCI In Vivo Anticancer Drug Screen. Data for tumor model Lieberman Plasma Cell No. 1 (LPC-1) (intraperitoneal) in unknown mice
Conditions: endpoint: median survival time, higher = longer survival
Experimental: The antitumor activity of compounds was measured in mice bearing transplantable tumors. Survival or tumor size were measured and the results are expressed as the measurement made in the treated group (T) divided by the measurement made in the vehicle treated control group (C). The tumor model used in this assay is Lieberman Plasma Cell No. 1 (LPC-1) (intraperitoneal) in unknown mice

## CNNCc1ccc(C(=O)NC(C)C)cc1
dose: 26.0 mg/kg/injection, schedule: Q01DX028 (sc), vehicle: saline
  T/C: 96 % of control
dose: 65.0 mg/kg/injection, schedule: Q01DX028 (sc), vehicle: saline
  T/C: 166 % of control
dose: 90.0 mg/kg/injection, schedule: Q01DX028 (sc), vehicle: saline
  T/C: 115 % of control
dose: 108.0 mg/kg/injection, schedule: Q01DX028 (sc), vehicle: saline
  T/C: 180 % of control
dose: 135.0 mg/kg/injection, schedule: Q01DX028 (sc), vehicle: saline
  T/C: 100 % of control
dose: 300.0 mg/kg/injection, schedule: Q01DX028 (sc), vehicle: saline
  T/C: 114 % of control
dose: 500.0 mg/kg/injection, schedule: Q01DX028 (sc), vehicle: saline
  T/C: 95 % of control

## CC1(C)CC2(CC(C)(C)Oc3cc(O)ccc32)c2ccc(O)cc2O1
dose: 50.0 mg/kg/injection, schedule: Q01DX008 (sc), vehicle: saline
  T/C: 100 % of control
dose: 100.0 mg/kg/injection, schedule: Q01DX008 (sc), vehicle: saline
  T/C: 97 % of control
dose: 200.0 mg/kg/injection, schedule: Q01DX008 (sc), vehicle: saline
  T/C: 97 % of control
dose: 400.0 mg/kg/injection, schedule: Q01DX008 (sc), vehicle: saline
  T/C: 92 % of control

## CS(=O)(=O)OCCN(CCOS(C)(=O)=O)c1ccc(/C=N/Nc2ncnc3nc[nH]c23)cc1
dose: 5.0 mg/kg/injection, schedule: Q03HX056 (sc), vehicle: other
  T/C: 111 % of control
dose: 8.0 mg/kg/injection, schedule: Q01DX028 (sc), vehicle: carboxymethylcellulose (CMC)
  T/C: 186 % of control
dose: 10.0 mg/kg/injection, schedule: Q03HX008 (sc), vehicle: other
  T/C: 100 % of control
dose: 10.0 mg/kg/injection, schedule: Q03HX056 (sc), vehicle: other
  T/C: 116 % of control
dose: 20.0 mg/kg/injection, schedule: Q03HX008 (sc), vehicle: other
  T/C: 102 % of control
dose: 20.0 mg/kg/injection, schedule: Q03HX056 (sc), vehicle: other
  T/C: 150 % of control
dose: 36.0 mg/kg/injection, schedule: Q01DX028 (sc), vehicle: carboxymethylcellulose (CMC)
  T/C: 171 % of control
dose: 40.0 mg/kg/injection, schedule: Q03HX008 (sc), vehicle: other
  T/C: 116 % of control
dose: 55.0 mg/kg/injection, schedule: Q01DX028 (sc), vehicle: carboxymethylcellulose (CMC)
  T/C: 210 % of control
dose: 79.0 mg/kg/injection, schedule: Q01DX028 (sc), vehicle: other
  T/C: 158 % of control
dose: 80.0 mg/kg/injection, schedule: Q01DX001 (sc), vehicle: other
  T/C: 94 % of control
dose: 80.0 mg/kg/injection, schedule: Q01DX028 (ip), vehicle: other
  T/C: 177 % of control
dose: 80.0 mg/kg/injection, schedule: Q01DX028 (sc), vehicle: carboxymethylcellulose (CMC)
  T/C: 218 % of control and 102 % of control
dose: 80.0 mg/kg/injection, schedule: Q03DX004 (sc), vehicle: other
  T/C: 111 % of control
dose: 80.0 mg/kg/injection, schedule: Q03HX008 (sc), vehicle: other
  T/C: 108 % of control
dose: 119.0 mg/kg/injection, schedule: Q01DX028 (sc), vehicle: other
  T/C: 210 % of control
dose: 120.0 mg/kg/injection, schedule: Q01DX028 (ip), vehicle: other
  T/C: 166 % of control
dose: 120.0 mg/kg/injection, schedule: Q01DX028 (oral), vehicle: other
  T/C: 122 % of control
dose: 120.0 mg/kg/injection, schedule: Q01DX028 (sc), vehicle: carboxymethylcellulose (CMC)
  T/C: 175 % of control and 252 % of control
dose: 120.0 mg/kg/injection, schedule: Q01DX028 (sc), vehicle: other
  T/C: 189 % of control
dose: 120.0 mg/kg/injection, schedule: Q03DX004 (sc), vehicle: other
  T/C: 116 % of control
dose: 160.0 mg/kg/injection, schedule: Q01DX001 (sc), vehicle: other
  T/C: 97 % of control
dose: 179.0 mg/kg/injection, schedule: Q01DX028 (sc), vehicle: other
  T/C: 187 % of control
dose: 180.0 mg/kg/injection, schedule: Q01DX028 (ip), vehicle: other
  T/C: 111 % of control
dose: 180.0 mg/kg/injection, schedule: Q01DX028 (sc), vehicle: carboxymethylcellulose (CMC)
  T/C: 164 % of control and 238 % of control
dose: 180.0 mg/kg/injection, schedule: Q01DX028 (sc), vehicle: other
  T/C: 166 % of control
dose: 180.0 mg/kg/injection, schedule: Q03DX004 (sc), vehicle: other
  T/C: 116 % of control
dose: 269.0 mg/kg/injection, schedule: Q01DX028 (sc), vehicle: other
  T/C: 166 % of control
dose: 270.0 mg/kg/injection, schedule: Q01DX028 (ip), vehicle: other
  T/C: 122 % of control
dose: 270.0 mg/kg/injection, schedule: Q01DX028 (oral), vehicle: other
  T/C: 119 % of control
dose: 270.0 mg/kg/injection, schedule: Q01DX028 (sc), vehicle: carboxymethylcellulose (CMC)
  T/C: 202 % of control
dose: 270.0 mg/kg/injection, schedule: Q03DX004 (sc), vehicle: other
  T/C: 116 % of control
dose: 320.0 mg/kg/injection, schedule: Q01DX001 (sc), vehicle: other
  T/C: 105 % of control
dose: 640.0 mg/kg/injection, schedule: Q01DX001 (sc), vehicle: other
  T/C: 105 % of control

## COc1cc2oc(=O)ccc2cc1CC=C(C)C
dose: 25.0 mg/kg/injection, schedule: Q01DX028 (sc), vehicle: saline
  T/C: 100 % of control

## Nc1cc2ncccc2c2ncccc12
dose: 37.5 mg/kg/injection, schedule: Q01DX028 (sc), vehicle: steriod suspending solution
  T/C: 104 % of control
dose: 75.0 mg/kg/injection, schedule: Q01DX028 (sc), vehicle: steriod suspending solution
  T/C: 104 % of control
dose: 150.0 mg/kg/injection, schedule: Q01DX028 (sc), vehicle: steriod suspending solution
  T/C: 112 % of control

## CCOc1ccccc1C(=O)Nc1ccc(Br)cc1
dose: 180.0 mg/kg/injection, schedule: Q01DX Z (sc), vehicle: carboxymethylcellulose (CMC)
  T/C: 97 % of control
dose: 266.0 mg/kg/injection, schedule: Q01DX Z (sc), vehicle: carboxymethylcellulose (CMC)
  T/C: 105 % of control
dose: 400.0 mg/kg/injection, schedule: Q01DX Z (sc), vehicle: carboxymethylcellulose (CMC)
  T/C: 100 % of control
dose: 600.0 mg/kg/injection, schedule: Q01DX Z (sc), vehicle: carboxymethylcellulose (CMC)
  T/C: 94 % of control
